Reference: patent publication US20250340551A1, “SMALL MOLECULE MODULATORS OF STAT6” (Gilead Sciences, Inc., priority 2024, published 2025)

molecular target: human STAT6 (Homo sapiens (Human), UniProt P42226); assay: Surface plasmon resonance assay (Biacore 8K, binding to immobilized STAT6); conditions: human STAT6 aa122-658, N-terminal His-tag, CM5 chip, 25° C.; geometric mean; read-out: STAT6 SPR Kd
Procedure: Biacore instruments from the 8K-series (Cytiva) were used, and measurements were performed at 25° C. Human STAT6 (truncated, aa122-658, with N-terminal His-tag, expressed in insect cells) was immobilized in the active flow cells on a CM5 chip using amine-coupling (default settings) at 10 μg/ml in 10 mM acetate buffer pH 5.5, at a contact time of 120-420 sec. and a flow rate of 10 μl/min. Reference flow cells were deactivated using blank immobilization. PBS-P+ (Cytiva) supplemented with 2% DMSO was used as running buffer, and solvent correction was applied. Compounds were tested by multi-cycle kinetics injections using a contact time of 60 sec., dissociation time of up to 300 sec., and a flow rate of 30 μl/min.
Solvent-corrected, reference-subtracted and blank-corrected data was processed and binding isotherms were fitted according to a single report point from each sensorgram (Standard: Late binding (5 sec. before injection end); alternative: Earlier report point according to binding profile). Data fitting was done both with unfixed Rmax and with Rmax fixed to the theoretical value* assuming 1:1 binding to allow processing of data from both weak and strong binders as well as to evaluate binding stoichiometry.
Positive controls were run at the beginning, during, and at the end of the screen to evaluate surface activity.

Chain of human STAT6 (P42226 122-658): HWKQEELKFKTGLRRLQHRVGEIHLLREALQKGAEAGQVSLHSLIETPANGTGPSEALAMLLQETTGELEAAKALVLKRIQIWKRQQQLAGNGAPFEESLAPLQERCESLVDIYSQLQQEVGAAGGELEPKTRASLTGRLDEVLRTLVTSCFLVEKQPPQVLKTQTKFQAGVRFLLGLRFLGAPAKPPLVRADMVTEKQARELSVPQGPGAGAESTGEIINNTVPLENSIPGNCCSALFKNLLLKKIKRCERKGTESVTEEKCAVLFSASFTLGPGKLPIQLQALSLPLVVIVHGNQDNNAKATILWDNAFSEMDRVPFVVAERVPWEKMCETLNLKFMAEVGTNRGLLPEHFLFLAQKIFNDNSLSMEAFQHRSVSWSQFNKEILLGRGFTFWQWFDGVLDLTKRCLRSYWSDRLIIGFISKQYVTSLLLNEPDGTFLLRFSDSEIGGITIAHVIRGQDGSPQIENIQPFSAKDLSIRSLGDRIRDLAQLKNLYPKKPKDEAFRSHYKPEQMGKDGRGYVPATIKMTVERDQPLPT

| Kd [nM] | Compound |
| --- | --- |
| 2360 | C[C@@H](c1cc2c(-c3ccc(N)cn3)ccnc2n1C)N1CC=C(c2ccc(C(=O)N(C)C)cc2)CC1 [Example 1af19, (S)-4-(1-(1-(4-(5-Aminopyridin-2-yl)-1-methyl-1H-pyrrolo[2,3-b]pyridin-2-yl)ethyl)-1,2,3,6-tetrahydropyridin-4-yl)-N,N-dimethylbenzamide] |
| 8660 | C[C@@H](c1cc2c(-c3ccc(N)nc3C#N)ccnc2n1C)N1CC=C(c2ccc(C(=O)N(C)C)cc2)CC1 [Example 1af21, (S)-4-(1-(1-(4-(6-amino-2-cyanopyridin-3-yl)-1-methyl-1H-pyrrolo[2,3-b]pyridin-2-yl)ethyl)-1,2,3,6-tetrahydropyridin-4-yl)-N,N-dimethylbenzamide] |
| 45.2 | C[C@H](c1cc2c(-c3ccc(N)nc3C#N)ccnc2n1C)N1CC=C(c2ccc(C(=O)N(C)C)cc2)CC1 [Example 1af23, (R)-4-(1-(1-(4-(6-amino-2-cyanopyridin-3-yl)-1-methyl-1H-pyrrolo[2,3-b]pyridin-2-yl)ethyl)-1,2,3,6-tetrahydropyridin-4-yl)-N,N-dimethylbenzamide] |
| 361 | [2H]C([2H])([2H])N(C(=O)c1ccc(C2=CCN([C@@H](C)c3cc4c(-c5ccc(N)nc5C#N)ccnc4n3C)CC2)c(C)c1)C([2H])([2H])[2H] [Example 1af25, (S)-4-(1-(1-(4-(6-amino-2-cyanopyridin-3-yl)-1-methyl-1H-pyrrolo[2,3-b]pyridin-2-yl)ethyl)-1,2,3,6-tetrahydropyridin-4-yl)-3-methyl-N,N-bis(methyl-d3)benzamide] |
| 66.5 | Cc1cc(C(=O)N(C)C)ccc1C1CCN([C@@H](C)c2cc3c(-c4ccc(N)nc4C#N)ccnc3n2C)CC1 [Example 1af27, (S)-4-(1-(1-(4-(6-Amino-2-cyanopyridin-3-yl)-1-methyl-1H-pyrrolo[2,3-b]pyridin-2-yl)ethyl)piperidin-4-yl)-N,N,3-trimethylbenzamide] |
| 5310 | Cc1cc(C(=O)N(C)C)ccc1C1CCN([C@H](C)c2cc3c(-c4ccc(N)nc4C#N)ccnc3n2C)CC1 [Example 1af28, (R)-4-(1-(1-(4-(6-amino-2-cyanopyridin-3-yl)-1-methyl-1H-pyrrolo[2,3-b]pyridin-2-yl)ethyl)piperidin-4-yl)-N,N,3-trimethylbenzamide] |
| 645 | [2H]C([2H])([2H])N(C(=O)c1ccc(C2CCN([C@@H](C)c3cc4c(-c5ccc(N)nc5C#N)ccnc4n3C)CC2)cc1)C([2H])([2H])[2H] [Example 1af29, (S)-4-(1-(1-(4-(6-Amino-2-cyanopyridin-3-yl)-1-methyl-1H-pyrrolo[2,3-b]pyridin-2-yl)ethyl)-piperidin-4-yl)-N,N-bis(methyl-d3)benzamide] |
| 24.1 | [2H]C([2H])([2H])N(C(=O)c1ccc(C2CCN([C@H](C)c3cc4c(-c5ccc(N)nc5C#N)ccnc4n3C)CC2)cc1)C([2H])([2H])[2H] [Example 1af30, (R)-4-(1-(1-(4-(6-amino-2-cyanopyridin-3-yl)-1-methyl-1H-pyrrolo[2,3-b]pyridin-2-yl)ethyl)piperidin-4-yl)-N,N-bis(methyl-d3)benzamide] |
| 169 | [2H]C([2H])([2H])N(C(=O)c1ccc(C2=CCN([C@@H](C)c3cc4c(-c5ccc(N)cn5)ccnc4n3C)CC2)c(C)c1)C([2H])([2H])[2H] [Example 1af31, (S)-4-(1-(1-(4-(5-aminopyridin-2-yl)-1-methyl-1H-pyrrolo[2,3-b]pyridin-2-yl)ethyl)-1,2,3,6-tetrahydropyridin-4-yl)-3-methyl-N,N-bis(methyl-d3)benzamide] |
| 286 | Cc1cc(C(=O)N(C)C)ccc1C1=CCN([C@@H](C)c2cc3c(-c4ccc(N)cn4)ccnc3n2C)CC1 [Example 1af32, (S)-4-(1-(1-(4-(5-Aminopyridin-2-yl)-1-methyl-1H-pyrrolo[2,3-b]pyridin-2-yl)ethyl)-1,2,3,6-tetrahydropyridin-4-yl)-N,N,3-trimethylbenzamide] |
| 15.4 | [2H]C([2H])([2H])N(C(=O)c1ccc(C2=CCN([C@H](C)c3cc4c(-c5ccc(N)cn5)ccnc4n3C)CC2)c(C)c1)C([2H])([2H])[2H] [Example 1af33, (R)-4-(1-(1-(4-(5-aminopyridin-2-yl)-1-methyl-1H-pyrrolo[2,3-b]pyridin-2-yl)ethyl)-1,2,3,6-tetrahydropyridin-4-yl)-3-methyl-N,N-bis(methyl-d3)benzamide] |
| 18.6 | Cc1cc(C(=O)N(C)C)ccc1C1=CCN([C@H](C)c2cc3c(-c4ccc(N)cn4)ccnc3n2C)CC1 [Example 1af34, (R)-4-(1-(1-(4-(5-aminopyridin-2-yl)-1-methyl-1H-pyrrolo[2,3-b]pyridin-2-yl)ethyl)-1,2,3,6-tetrahydropyridin-4-yl)-N,N,3-trimethylbenzamide] |
| 605 | [2H]C([2H])([2H])N(C(=O)c1ccc(C2CCN([C@@H](C)c3cc4c(-c5ccc(N)cn5)ccnc4n3C)CC2)cc1)C([2H])([2H])[2H] [Example 1af35, (S)-4-(1-(1-(4-(5-Aminopyridin-2-yl)-1-methyl-1H-pyrrolo[2,3-b]pyridin-2-yl)-ethyl)piperidin-4-yl)-N,N-bis(methyl-d3)benzamide] |
| 5270 | [2H]C([2H])([2H])N(C(=O)c1ccc(C2CCN([C@H](C)c3cc4c(-c5ccc(N)nc5C#N)ccnc4n3C)CC2)c(C)c1)C([2H])([2H])[2H] [Example 1af38, (R)-4-(1-(1-(4-(6-amino-2-cyanopyridin-3-yl)-1-methyl-1H-pyrrolo[2,3-b]pyridin-2-yl)ethyl)-piperidin-4-yl)-3-methyl-N,N-bis(methyl-d3)benzamide] |
| 3300 | [2H]C([2H])([2H])N(C(=O)c1ccc(C2CCN([C@@H](C)c3cc4c(-c5ccc(N)cn5)ccnc4n3C)CC2)c(C)c1)C([2H])([2H])[2H] [Example 1af41, (S)-4-(1-(1-(4-(5-Aminopyridin-2-yl)-1-methyl-1H-pyrrolo[2,3-b]pyridin-2-yl)ethyl)-piperidin-4-yl)-3-methyl-N,N-bis(methyl-d3)benzamide] |
| 2950 | [2H]C([2H])([2H])N(C(=O)c1ccc(C2=CCN([C@@H](C)c3cc4c(-c5ccc(N)cn5)ccnc4n3C)CC2)cc1)C([2H])([2H])[2H] [Example 1af43, (S)-4-(1-(1-(4-(5-Aminopyridin-2-yl)-1-methyl-1H-pyrrolo[2,3-b]pyridin-2-yl)ethyl)-1,2,3,6-tetrahydropyridin-4-yl)-N,N-bis(methyl-d3)benzamide] |
| 37200 | CNC(=O)c1ccc(-c2ccnc3c2cc(CN2CCN(c4ccc(C(=O)N(C)C)cc4)CC2)n3C)cc1 [Example 1j6, 4-[2-[[4-[4-(Dimethylcarbamoyl)phenyl]piperazin-1-yl]methyl]-1-methyl-pyrrolo[2,3-b]pyridin-4-yl]-N-methyl-benzamide] |
| 3450 | CNC(=O)c1ccc(-c2ccnc3c2cc(CN2CCC(c4ccc(C(=O)N(C)C)cc4)CC2)n3C)cc1 [Example 1j7, 4-[2-[[4-[4-(Dimethylcarbamoyl)phenyl]-1-piperidyl]methyl]-1-methyl-pyrrolo[2,3-b]pyridin-4-yl]-N-methyl-benzamide] |
| 12.8 | CN(C)C(=O)c1ccc(C2CCN(Cc3cc4c(-c5ccc(N)c(C(=O)C(=O)O)c5)ccnc4n3C)CC2)cc1 [Example 1j13, 2-(2-Amino-5-(2-((4-(4-(dimethylcarbamoyl)phenyl)piperidin-1-yl)methyl)-1-methyl-1H-pyrrolo[2,3-b]pyridin-4-yl)phenyl)-2-oxoacetic acid] |
| 64 | CC(=O)Nc1ccc(-c2ccnc3c2cc(CN2CCC(c4ccc(C(=O)N(C)C)cc4)CC2)n3C)cn1 [Example 1k2, 4-[1-[[4-(6-Acetamido-3-pyridyl)-1-methyl-pyrrolo[2,3-b]pyridin-2-yl]methyl]-4-piperidyl]-N,N-dimethyl-benzamide] |
| 457 | CN(C)C(=O)c1ccc(C2CCN(Cc3cc4c(-c5cnc(N)cn5)ccnc4n3C)CC2)cc1 [Example 1k8, 4-[1-[[4-(5-Aminopyrazin-2-yl)-1-methyl-pyrrolo[2,3-b]pyridin-2-yl]methyl]-4-piperidyl]-N,N-dimethyl-benzamide] |
| 144 | CN(C)C(=O)c1ccc(C2CCN(Cc3cc4c(-c5cnc(N)c(C(=O)O)c5)ccnc4n3C)CC2)cc1 [Example 1k9, 2-Amino-5-[2-[[4-[4-(dimethylcarbamoyl)phenyl]-1-piperidyl]methyl]-1-methyl-pyrrolo[2,3-b]pyridin-4-yl]pyridine-3-carboxylic acid] |
| 2630 | COC(=O)c1cc(-c2ccnc3c2cc(CN2CCC(c4ccc(C(=O)N(C)C)cc4)CC2)n3C)cnc1N [Example 1k10, Methyl 2-amino-5-[2-[[4-[4-(dimethylcarbamoyl)phenyl]-1-piperidyl]methyl]-1-methyl-pyrrolo[2,3-b]pyridin-4-yl]pyridine-3-carboxylate] |
| 38.9 | CN(C)C(=O)c1ccc(C2CCN(Cc3cc4c(-c5cnc(N)cc5F)ccnc4n3C)CC2)cc1 [Example 1k15, 4-[1-[[4-(6-Amino-4-fluoro-3-pyridyl)-1-methyl-pyrrolo[2,3-b]pyridin-2-yl]methyl]-4-piperidyl]-N,N-dimethyl-benzamide] |
| 22.6 | [2H]C([2H])([2H])N(C(=O)c1ccc(C2CCN(Cc3cc4c(-c5cnc(N)cc5F)ccnc4n3C)CC2)cc1)C([2H])([2H])[2H] [Example 1k16, 4-[1-[[4-(6-Amino-4-fluoro-3-pyridyl)-1-methyl-pyrrolo[2,3-b]pyridin-2-yl]methyl]-4-piperidyl]-N,N-bis(trideuteriomethyl)benzamide] |
